The results in this text go back to patent publication US7288273B1, “Gallotannins and ellagitannins as regulators of cytokine release” (The Penn State Research Foundation, priority 2000, dated 2007).

Experiment [1] relates to TNF-α secretion from h-PBMC's. Kind of experiment: TNF-α release from h-PBMC's, ELISA. The experiment is classed as cell-based, human. Conditions: 24 hours, ± SD. How it is done:
(§1) Authentic samples of agrimoniin and coriariin A were supplied by Professor Yoshida (Okayama University, Japan). Dimeric gallotannin (analog of coriariin A) and β-D-PGG were synthesized as described. LPS (E. coli 055:B5 phenol extract, MW range 50-100 KD). Ficoll-Histopaque (ρ=1.077 g/mL), Fetal Bovine Serum, sterile, hybridoma tested (FCS), gentamicin 10 mg/mL. L-glutamine, 200 mM. Dextran B-512 Leuconostoc Av M.W. 580000, and Trypan Blue stain were purchased from Sigma. Hanks Buffer Saline Solution 1×, with phenol red, mediatech (HBSS) and RPMI 1640 1×, mediatech were purchased from Fisher Scientific, Human IL-1β and TNF-α Enzyme Linked ImmunoSorbent Assay (ELISA) kits were purchased from R and D Systems, Minneapolis, Minn. Fresh heparinized blood was obtained from health human subjects (ages 20-34).
(§2) Dose-Response Data: General Procedure. H-PBMC's were isolated by reported procedures (10. 18). The cells counted and the viability was determined by Trypan Blue exclusion (typically, viability exceeded 95%). The concentration of the cells in the 0.5 mL wells was adjusted to 1×10^6 cells/well by diluting with the required amount of RPMI.
(§3) The appropriate amount of a tannin (or LPS) stock solution in HBSS was added to each well to furnish the concentration values reported in the Figures. […] The culture plates were incubated in a 5% CO2, 37° C. humidified incubator for the indicated time. At the end of the time interval, 450 μL of the culture supernatant from each well was harvested, after centrifugation at 400 g, 25° C., 10 min. with brake, and stored at −78° C. pending ELISA analysis for the cytokine(s). The ELISA assays were conducted per the manufacturer's instructions using standard calibration curves to calculate cytokine concentration from observed absorbance readings. The cytokine values reported are averages of three runs±SE.
(§4) The dimeric antitumor ellagitannins coriariin A and agrimoniin, the monomeric gallotannin β-D-pentagalloylglucose (β-D-PGG) and the dimeric gallotannin of this invention were all examined in this study. The dimeric gallotannin is an analog of coriariin A and is identical to the parent ellagitannin except that the galloyl rings at O(4) and O(6) are not joined in a hexahydroxydiphenoyl (HHDP) linkage. h-PBMC's were incubated with the compound under investigation for the indicated length of time and the amounts of both IL-1β and, independently, TNF-α, present in the culture supernatants was determined using commercially available ELISA kits. In each case, LPS was used as a positive control while untreated cells were reserved as negative controls.
In the first study, the induction of TNF-α secretion from h-PBMC's in the presence of each compound 17c-21c was measured. The h-PBMC's were incubated with each compound for 24 hours. The TNF-α levels in the cell culture supernatant were assayed by Enzyme Linked ImmunoSorbant Assay (ELISA). The data point for each assay represent the mean of triplicate measurements. […] (See FIG. 11).
On the technique in general: In an ELISA, binding on a coated surface is turned into a signal by an enzyme label.

Experiment [2] relates to IL-1β secretion from h-PBMC's. In words: IL-1β release from h-PBMC's, ELISA. The experiment is classed as cell-based, human. The conditions noted are these: for IL-1β secreted in the presence of 17c-20c: h-PBMC's 2nd subject, ± SD. How it is done: as §1, §2, §3, §4
In the third study, compounds 17c-20c were examined for their ability to induce secretion of IL-1β from h-PBMC's (FIG. 16). Recall from the introduction that the cytokine IL-1β is also released in an LPS-stimulated septic shock response. The compounds that cause very little secretion of IL-1β or none at all will be the optimal compounds for potential septic shock therapeutics because they will be less likely themselves to induce a septic shock response.

On to `O=C(CCCCCC(=O)OC1O[C@H](COC(=O)c2cc(O)c(O)c(O)c2)[C@@H](OC(=O)c2cc(O)c(O)c(O)c2)[C@H](OC(=O)c2cc(O)c(O)c(O)c2)[C@H]1OC(=O)c1cc(O)c(O)c(O)c1)OC1O[C@H](COC(=O)c2cc(O)c(O)c(O)c2)[C@@H](OC(=O)c2cc(O)c(O)c(O)c2)[C@H](OC(=O)c2cc(O)c(O)c(O)c2)[C@H]1OC(=O)c1cc(O)c(O)c(O)c1` (mixture of isomers) [Compound 20c, 1,1′-O-2,2′,3,3′,4,4′,6,6′-Tetrakis(3,4,5-trihyroxybenzoyl)-β,β′-D,D′-glucopyranosylpimelate], for which the “TNF-α secreted in the presence of 17c-21c” value (shortened to “TNF-α secreted”) in experiment [1] (compound 0.6 μM), in experiment [1] (compound 2.8 μM), in experiment [1] (compound 5.6 μM), in experiment [1] (compound 11.2 μM), in experiment [1] (compound 16.8 μM) and in experiment [1] (compound 22.3 μM) was 0 pg/mL each time. Further, the “TNF-α secreted” value in experiment [1] (compound 27.9 μM) is 0 pg/mL. Moreover, the “IL-1β secreted in the presence of 17c-20c” value (from here on “IL-1β secreted”) in experiment [2] (compound 0.6 μM) was 0 pg/mL; in experiment [2] (compound 2.9 μM), 0 pg/mL; in experiment [2] (compound 5.9 μM), 0 pg/mL; in experiment [2] (compound 11.8 μM) it was 184.1 pg/mL; in experiment [2] (compound 17.6 μM), 230.0 pg/mL; in experiment [2] (compound 23.5 μM) it was 0 pg/mL. Besides, the “IL-1β secreted” value in experiment [2] (compound 29.4 μM) turned out to be 204.2 pg/mL. In experiment [2], the “IL-1β secretion from h-PBMC's, in words” value was “lowest amounts of IL-1β production”.
`O=C(OC[C@H]1O[C@@H](OC(=O)c2cccc(C(=O)O[C@@H]3O[C@H](COC(=O)c4cc(O)c(O)c(O)c4)[C@@H](OC(=O)c4cc(O)c(O)c(O)c4)[C@H](OC(=O)c4cc(O)c(O)c(O)c4)[C@H]3OC(=O)c3cc(O)c(O)c(O)c3)c2)[C@H](OC(=O)c2cc(O)c(O)c(O)c2)[C@@H](OC(=O)c2cc(O)c(O)c(O)c2)[C@@H]1OC(=O)c1cc(O)c(O)c(O)c1)c1cc(O)c(O)c(O)c1` [Compound 18c, 1,1′-O-2,2′,3,3′,4,4′,6,6′-Tetrakis(3,4,5-trihydroxybenzoyl)-β,β′-D-glucopyranosylisophthalate]: the “TNF-α secreted” value is on record as 8.9 ± 5.6 pg/mL in experiment [1] (compound 0.6 μM); 11.9 ± 5.2 pg/mL in experiment [1] (compound 2.9 μM); 6.7 ± 2.9 pg/mL in experiment [1] (compound 5.9 μM); 9.5 ± 7.2 pg/mL in experiment [1] (compound 11.8 μM); 11.4 ± 9.2 pg/mL in experiment [1] (compound 17.6 μM); 3.3 ± 2.6 pg/mL in experiment [1] (compound 23.5 μM). Moreover, in experiment [1] (compound 29.4 μM), the “TNF-α secreted” value was 8.5 ± 3.5 pg/mL. The “IL-1β secreted” value is 0 pg/mL in experiment [2] (compound 0.6 μM); 4.7 ± 8.1 pg/mL in experiment [2] (compound 2.9 μM); 3.2 ± 5.5 pg/mL in experiment [2] (compound 5.9 μM); 34.1 ± 48.2 pg/mL in experiment [2] (compound 11.8 μM); 1266.0 ± 78.3 pg/mL in experiment [2] (compound 17.6 μM); 631.2 ± 94.4 pg/mL in experiment [2] (compound 23.5 μM). Besides, the “IL-1β secreted” value in experiment [2] (compound 29.4 μM) is recorded as 2113.4 ± 393.0 pg/mL.
`O=C(OC[C@H]1O[C@@H](OC(=O)c2ccc(-c3ccc(C(=O)O[C@@H]4O[C@H](COC(=O)c5cc(O)c(O)c(O)c5)[C@@H](OC(=O)c5cc(O)c(O)c(O)c5)[C@H](OC(=O)c5cc(O)c(O)c(O)c5)[C@H]4OC(=O)c4cc(O)c(O)c(O)c4)cc3)cc2)[C@H](OC(=O)c2cc(O)c(O)c(O)c2)[C@@H](OC(=O)c2cc(O)c(O)c(O)c2)[C@@H]1OC(=O)c1cc(O)c(O)c(O)c1)c1cc(O)c(O)c(O)c1` [Compound 19c, 1,1′-O-2.2′,3,3′,4,4′,6,6′-Tetrakis(3,4,5-trihyroxybenzoyl)-β,β′-D,D′-glucopyranosylbiphenyl-4.4′-diester]: the “TNF-α secreted” value was found to be 73.4 ± 58.3 pg/mL in experiment [1] (compound 0.6 μM); 50.9 ± 28.0 pg/mL in experiment [1] (compound 2.9 μM); 8.0 ± 8.0 pg/mL in experiment [1] (compound 5.9 μM); 9.5 ± 6.5 pg/mL in experiment [1] (compound 11.8 μM); 24.5 ± 10.7 pg/mL in experiment [1] (compound 17.6 μM); 67.6 ± 21.0 pg/mL in experiment [1] (compound 23.5 μM). In addition, the “TNF-α secreted” value in experiment [1] (compound 29.4 μM) amounted to 117.8 ± 44.0 pg/mL. For the same compound, the “IL-1β secreted” value in experiment [2] (compound 0.6 μM) is on record as 54.2 ± 57.5 pg/mL; in experiment [2] (compound 2.8 μM), 60.9 ± 58.6 pg/mL; in experiment [2] (compound 5.6 μM) it was 14.5 ± 25.2 pg/mL; in experiment [2] (compound 11.2 μM), 9.4 ± 7.0 pg/mL; in experiment [2] (compound 16.8 μM), 41.3 ± 14.8 pg/mL; in experiment [2] (compound 22.5 μM), 23.2 ± 18.0 pg/mL. For the same compound, the “IL-1β secreted” value in experiment [2] (compound 28.1 μM) was 41.3 ± 6.0 pg/mL. The “IL-1β secretion from h-PBMC's, in words” value in experiment [2] is “lowest amounts of IL-1β production”.
